This note sets out measurements from patent US8217085B2 (priority 2009, dated 2012).

For assay [1], the system named is ATCC strain 43300 Staphylococcus aureus.
Protocol: Additional antibiotic was added every 24 hours. The growth periods tested were 24 (FIG. 5), 48, 72, 96 and 120 hours.
USP<51> Antimicrobial Effectiveness protocol was used as the template experimental paradigm. […] All concentrations were plated out to the 10^−7 dilutions to ascertain cfu/ml. […] Additional antibiotic was added at the initial concentration every 24 hours.
ATCC strain 43300 Staphylococcus aureus was streaked out for isolations. An isolated colony was chosen, streaked again and incubated. Isolate was chosen and then diluted to a McFarland standard of one. The estimated value was then taken to inoculate tubes containing growth media and 12, 30 or 60 μg/ml methicillin with approximately 10^5 cfu/ml. These tubes were incubated and plated for counting cfu.
Material was calculated on a 10 ml volume. Sterile methicillin was added to each experimental condition to a final concentration of 12, 30 or 60 μg/ml antibiotic. Lactose Broth positive controls both with and without the 12 μg/ml, 30 μg/ml, 60 μg/ml antibiotic were inoculated with MRSA. […] Tubes were set up in singlet, but plated in triplicate, as described below.
All tubes were then inoculated with a dilution of the selected ATCC strain 43300 Staphylococcus aureus clone giving a final level of colony forming units of 1.49×10^5/ml (log=5.17). The tubes were incubated at 25° C. and mixed periodically. Antibiotic was re-inoculated every 24 hours at the initial concentration to maintain pressure on the organism. Plating was done at 24, 48, 72, and 120 hours. Each condition was plated by diluting 1 ml of growth material into 9 ml of MLB diluent broth. […] This mixture was serial diluted down to 10^−7 with 1 ml placed in triplicate in a sterile petri dish at each dilution point. 20 mls of TSA was added to each dilution, swirled and allowed to solidify. All dilutions were placed in a 35° C. incubator for 24 to 72 hours. Bacterial colonies on each plate were counted and the average taken then changed into log format.
For assay [2] the test system is unchanged. The following applies: 24 hours.
Protocol: All concentrations were plated out to the 10^−7 dilutions to ascertain cfu/ml.
ATCC strain 43300 Staphylococcus aureus was streaked out for isolations and 25 clones were picked and diluted to a McFarland standard of one. The estimated value was then taken to inoculate tubes containing growth media and 12, 30 or 60 μg/ml methicillin or oxacillin with around 10^−7 cfu/tube.
Material was calculated on a 10 ml volume. Sterile oxacillin or methicillin was added to each experimental condition to a final concentration of 12, 30 or 60 μg/ml antibiotic.
All tubes were then inoculated with a dilution of the selected ATCC strain 43300 Staphylococcus aureus clone giving a final level of colony forming units of 9.4×10^7/ml (log=7.97). The tubes were incubated at 25° C. and mixed periodically. […] Plating was done at 24 hours. Each condition was plated by diluting 1 ml of growth material into 9 ml of MLB diluent broth. This mixture was serial diluted down to 10^−7, and 1 ml placed in a sterile petri dish at each dilution point. 20 mls of TSA was added to each dilution, swirled and allowed to solidify. All dilutions were placed in a 35° C. incubator for 24 hours. Bacterial colonies on each plate were counted and colony counts changed into log format. A positive and negative control was ascertained.
Assay [3] shares this test system. Put plainly: Survival of MRSA in MSM alone, 24 and 48 hours (USP<51> Antimicrobial Effectiveness template). The following applies: 5-16% MSM alone, 24 or 48 hour time point.
Protocol: USP<51> Antimicrobial Effectiveness protocol was used as the template experimental paradigm. […] All concentrations were plated out to the 10^−7 dilutionsto ascertain cfu/ml.
Material was calculated on a 10 ml volume.
All tubes were inoculated with a dilution of MRSA giving a final level of colony forming units of 2.0×10^5/ml (Log=5.23). The tubes were incubated at 25° C. and mixed periodically. Plating was done at 24 and 48 hours. Each condition was plated by diluting 1 ml of growth material into 9 ml of MLB diluent broth. This mixture was serial diluted down to 10^−7, and 1 ml placed in a sterile petri dish at each dilution point. 20 mls of TSA was added to each dilution, swirled and allowed to solidify. All dilutions were placed in a 35° C. incubator for 24 hours. Bacterial colonies on each plate were counted and colony counts changed into log format. A positive and negative control was ascertained.
For assay [4] the test system is unchanged. The note with it: for average log reduction in cfu/ml: 48 hours; for Log reduction in cfu/ml: 120 hours.
Protocol: This is the MIC for oxacillin and methicillin for this strain of bacteria.
USP<51> Antimicrobial Effectiveness protocol was used as the template experimental paradigm. […] All concentrations were plated out to the 10^−7 dilutionsto ascertain cfu/ml. […] This concentration is the industry standard for determining MRSA resistance in clinical applications.
Material was calculated on a 10 ml volume. Sterile oxacillin or methicillin was added to each experimental condition daily at 300 μl from a 30 mg/10 ml concentration giving it an initial final concentration of 6 μg/ml.
All tubes were inoculated with a dilution of MRSA giving a final level of colony forming units of 2.13×10^6/ml (Log=6.3). The tubes were incubated at 25° C. and mixed periodically. Plating was done at 24 hours, 48 hours and 5 days. Each condition was plated by diluting 1 ml of growth material into 9 ml of MLB diluent broth. This mixture was serial diluted down to 10^−7, and 1 ml placed in a sterile petri dish at each dilution point. 20 mls of TSA was added to each dilution, swirled and allowed to solidify. All dilutions were placed in a 35° C. incubator for 24 hours. Bacterial colonies on each plate were counted and colony counts changed into log format. A positive and negative control was ascertained.

Read-outs that look alike come from different tables or passages of the source.

As to `CS(C)(=O)=O` [MSM, methylsulfonylmethane], in assay [1] (30 μg/ml methicillin, lower end of MSM concentrations, 24 hours), the “average log reduction in colony count” value came to 3 log. The “log reduction in colony count” value was 4.1 log in assay [1] (5% MSM, 60 μg/ml methicillin, 48 hours); 4.1 log in assay [1] (6% MSM, 12 μg/ml methicillin, 48 hours); 2.8 log in assay [1] (6% MSM, 30 μg/ml methicillin, 24 hours). In assay [1] (16% MSM, 12 μg/ml methicillin, 24 hours), the log reduction is on record as 2.2 log. For the same molecule, the “average log reduction in cfu/ml” value in assay [2] (5% MSM with antibiotic (12, 30 or 60 μg/ml oxacillin or methicillin)) is 2.2 log; in assay [2] (16% MSM with antibiotic (barring methicillin 60 μg/ml outlier)), 3.3 log; in assay [4] (initial 5% MSM, 6 μg/ml methicillin) it was 2.7 log; in assay [4] (initial 8% MSM, 6 μg/ml oxacillin) it was 2.7 log; in assay [4] (initial 16% MSM, 6 μg/ml methicillin), 2.1 log; in assay [4] (initial 16% MSM, 6 μg/ml oxacillin), 2.1 log. Moreover, in assay [3], the effect on survival entry was “none of the concentrations of MSM tested had any effect on the survival”. The “Log reduction in cfu/ml” value in assay [4] (initial 13-16% MSM, 6 μg/ml methicillin) is recorded as ~3.5 log; in assay [4] (initial 14-16% MSM, 6 μg/ml oxacillin) it was ~3.3 log.
